This test deals with T1, EiCsm6 (Enterococcus italicus, UniProt E6LHV2).
T1 sequence (E6LHV2 1-430): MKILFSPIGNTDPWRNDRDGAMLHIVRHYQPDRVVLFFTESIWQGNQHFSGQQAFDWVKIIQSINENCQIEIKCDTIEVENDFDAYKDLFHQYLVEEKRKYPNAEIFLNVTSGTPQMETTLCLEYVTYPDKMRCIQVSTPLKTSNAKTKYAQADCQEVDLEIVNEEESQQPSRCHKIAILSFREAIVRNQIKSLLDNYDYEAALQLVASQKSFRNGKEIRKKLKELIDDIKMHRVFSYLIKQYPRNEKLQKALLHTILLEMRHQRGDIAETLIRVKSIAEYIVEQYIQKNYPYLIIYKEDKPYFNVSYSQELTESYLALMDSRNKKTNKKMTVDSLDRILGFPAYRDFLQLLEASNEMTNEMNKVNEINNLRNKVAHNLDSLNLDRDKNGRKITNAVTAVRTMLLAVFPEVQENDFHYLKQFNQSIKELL
Kind of test: fluorogenic RNase Alert cleavage, initial velocities, log. It counts as biochemical. To be noted: activator; allosteric, CARF domain; 20 mM HEPES pH 7.5, 50 mM KCl.

Broadly, the EC50 is the concentration giving half of the maximal effect. Read a low EC50 as higher potency in that assay. On to `Nc1ncnc2c1ncn2[C@@H]1O[C@H](CO)[C@@H](OP(=O)(O)OC[C@H]2O[C@@H](n3cnc4c(N)ncnc43)[C@H](O)[C@@H]2OP(=O)(O)OC[C@H]2O[C@@H](n3cnc4c(N)ncnc43)[C@H](O)[C@@H]2OP(=O)(O)OC[C@H]2O[C@@H](n3cnc4c(N)ncnc43)[C@H](O)[C@@H]2OP(=O)(O)OC[C@H]2O[C@@H](n3cnc4c(N)ncnc43)[C@H](O)[C@@H]2OP(=O)(O)OC[C@H]2O[C@@H](n3cnc4c(N)ncnc43)[C@@H]3OP(=O)(O)O[C@@H]32)[C@H]1O` [A6>P, 2',3'-cyclic phosphate-terminated hexaadenylate], for which the EC50 is around 60 nM.

Values taken from paper doi:10.1101/153262v1 (biorxiv, 2017).
